What is called IC50 is the concentration that inhibits the measured activity by half.

T1 sequence (Q7Z2W7 whole entry): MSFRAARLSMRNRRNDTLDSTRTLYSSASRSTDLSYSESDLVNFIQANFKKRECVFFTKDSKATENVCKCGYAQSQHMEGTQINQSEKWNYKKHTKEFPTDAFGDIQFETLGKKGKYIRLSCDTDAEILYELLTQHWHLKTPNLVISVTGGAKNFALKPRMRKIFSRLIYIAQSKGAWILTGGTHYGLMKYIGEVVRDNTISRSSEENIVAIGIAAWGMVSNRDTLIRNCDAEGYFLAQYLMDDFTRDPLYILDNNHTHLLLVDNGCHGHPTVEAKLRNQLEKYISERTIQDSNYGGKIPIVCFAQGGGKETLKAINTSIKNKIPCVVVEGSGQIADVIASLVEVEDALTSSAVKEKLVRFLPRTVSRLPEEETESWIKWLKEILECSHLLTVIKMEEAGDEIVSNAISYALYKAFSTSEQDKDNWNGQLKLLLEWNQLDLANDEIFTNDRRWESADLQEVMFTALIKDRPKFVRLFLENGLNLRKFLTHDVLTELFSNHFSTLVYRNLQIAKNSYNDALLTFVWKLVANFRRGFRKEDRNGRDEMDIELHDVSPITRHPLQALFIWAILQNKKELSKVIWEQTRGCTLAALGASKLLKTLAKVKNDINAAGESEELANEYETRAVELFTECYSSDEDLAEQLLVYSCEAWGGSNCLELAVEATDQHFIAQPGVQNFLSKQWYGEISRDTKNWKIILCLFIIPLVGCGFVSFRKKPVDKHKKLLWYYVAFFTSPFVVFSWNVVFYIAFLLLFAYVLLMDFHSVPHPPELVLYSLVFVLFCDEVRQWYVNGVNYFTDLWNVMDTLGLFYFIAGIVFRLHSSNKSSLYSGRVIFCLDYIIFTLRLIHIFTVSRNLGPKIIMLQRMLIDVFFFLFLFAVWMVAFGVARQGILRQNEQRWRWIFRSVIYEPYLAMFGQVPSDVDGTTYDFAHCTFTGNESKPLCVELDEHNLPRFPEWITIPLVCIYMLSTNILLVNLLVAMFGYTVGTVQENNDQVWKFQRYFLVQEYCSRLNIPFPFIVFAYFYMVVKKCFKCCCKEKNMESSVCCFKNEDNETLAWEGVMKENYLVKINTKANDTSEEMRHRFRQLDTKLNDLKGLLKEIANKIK

This experiment has as its target T1, human TRPM8 (Homo sapiens, UniProt Q7Z2W7).
T1 construct: expressed in transfected cells
The experiment is described as follows: In Vitro human TRPM8 Functional Assay (intracellular Ca2+, Fluo4, FDSS, menthol activation). The format is cell-based. The following applies: HEK293 cells stably expressing human TRPM8; activation with L-(-)-Menthol; 11-point dose-response. The procedure: In Vitro human TRPM8 Functional Assay
The functional activity of compounds was determined by measuring changes in intracellular calcium concentration using a Ca^2+-sensitive fluorescent dye, Fluo4 (Molecular Probes). The changes in fluorescent signal were monitored by the cell imaging technology by Hamamatsu Photonics's Functional Drug Screening System (FDSS).
HEK293 cells stably expressing human TRPM8 were grown in T175 flasks, in a 5% CO2 humidified incubator to about 80% confluence. Media composition consisted of Dulbecco's Modified Eagle Medium (high glucose), 10% fetal calf serum (FCS), 100 units/ml Penicillin, 100 microg/ml Streptomycin and 600 microg/ml Geneticine.
1. Plate-out HEK293-TRPM8 cells (40 microL medium containing 30,000 cells per well) into poly-D-lysine coated 384-well plates (BD FALCON) at 24 hours prior to assay.
1. […] 2. […] 3. Place the plate at room temperature in dark for 1 hour. 4. […] 5. Add 20 microL of compound solutions into each well and leave the plate for 5 minutes under the dark at room temperature. 6. Measure activity by FDSS as follows: • Set the assay plate on the stacker of FDSS • Start the detection of fluorescence intensity • After 30 sec, add 20 microL of 90 microM L-(−)-Menthol
IC50 values for compounds of the present invention were determined from 11-point dose-response studies. Curves were generated using the average of duplicate wells for each data point. Finally, the IC50 values are calculated with the best-fit dose curve determined by XLfit (ID Business Solutions Ltd.).
On to `Cc1cccc(N(C(C)c2ccccc2F)S(=O)(=O)c2cc(F)ccc2C)c1` (stereo not drawn) [Example 99, 5-Fluoro-N-(1-(2-fluoro-phenyl)ethyl)-2-methyl-N-m-tolylbenzenesulfonamide], for which the IC50 lay within 1000 to 10000 nM.

`O=S(=O)(c1ccc(Cl)cc1)N(Cc1ccccc1)c1ccccn1` [Example 129, N-Benzyl-4-chloro-N-(pyridin-2-yl)benzene-sulfonamide] returned an IC50 of 1000 to 10000 nM. Then `COc1cccc(C(C)N(c2ccccc2)S(=O)(=O)c2cccc(F)c2)c1` (stereo not drawn) [Example 138, 3-Fluoro-N-(1-(3-methoxy-phenyl)ethyl)-N-phenyl-benzenesulfonamide], with 1000 to 10000 nM; and `COc1ccc(OC)c(C(C)N(c2ccc(C)cc2)S(=O)(=O)c2ccc(C)cc2)c1` (stereo not drawn) [Example 85, N-(1-(2,5-Dimethoxyphenyl)ethyl)-4-methyl-N-p-tolylbenzenesulfonamide], with 1000 to 10000 nM.

Consider `O=C(O)c1cccc(S(=O)(=O)N(Cc2ccccc2)c2ccc(Cl)cc2)c1` [Example 115, 3-(N-Benzyl-N-(4-chlorophenyl)sulfamoyl) benzoic acid], for which the IC50 was in the range of 1000 to 10000 nM. Consider `O=C(O)c1ccc(S(=O)(=O)N(Cc2ccccc2-c2ccccc2)c2ncc(C(F)(F)F)cc2Cl)cc1` [Example 165, 4-(N-([1,1′-Biphenyl]-2-ylmethyl)-N-(3-chloro-5-(trifluoromethyl)pyridin-2-yl)sulfamoyl)benzoic acid], for which the IC50 was below 1000 nM. The value for `CC(C)c1ccc(CN(c2ncc(C(F)(F)F)cc2Cl)S(=O)(=O)c2ccc(C(=O)O)cc2)cc1` [Example 28, 4-(N-(3-Chloro-5-(trifluoromethyl)pyridin-2-yl)-N-(4-isopropylbenzyl)sulfamoyl)benzoic acid] was below 1000 nM. Turning to `COc1cccc(C(C)N(c2cccc(OC)c2)S(=O)(=O)c2ccc(C)c(F)c2)c1` (stereo not drawn) [Example 103, 3-Fluoro-N-(3-methoxyphenyl)-N-(1-(3-methoxy-phenyl)ethyl)-4-methyl benzenesulfonamide], the IC50 lay in the range of 1000 to 10000 nM. In turn, `NS(=O)(=O)Nc1ccc(S(=O)(=O)N(Cc2ccccc2)c2ncc(C(F)(F)F)cc2Cl)cc1` [Example 196, N-Benzyl-N-(3-chloro-5-(trifluoromethyl)pyridin-2-yl)-4-(sulfamoylamino)benzenesulfonamide] returned an IC50 below 1000 nM. In the case of `O=C(O)c1ccc(S(=O)(=O)N(Cc2ccccc2)c2ncccc2Cl)cc1` [Example 37, 4-(N-Benzyl-N-(3-chloropyridin-2-yl)sulfamoyl)benzoic acid], the IC50 lay in the range of 1000 to 10000 nM. `O=C(O)c1ccc(S(=O)(=O)N(Cc2ccc(F)cc2F)c2ncc(C(F)(F)F)cc2Cl)cc1` [Example 26, 4-(N-(3-Chloro-5-(trifluoromethyl)pyridin-2-yl)-N-(2,4-difluorobenzyl)sulfamoyl)benzoic acid] displayed an IC50 below 1000 nM. Then `COc1ccc(S(=O)(=O)N(Cc2ccccc2)c2ncc(C(F)(F)F)cc2Cl)cc1` [Example 175, N-Benzyl-N-(3-chloro-5-(trifluoromethyl)pyridin-2-yl)-4-methoxybenzenesulfonamide], with below 1000 nM; and `O=S(=O)(c1cccc2cccnc12)N(Cc1ccccc1)c1ccccn1` [Example 128, N-Benzyl-N-(pyridin-2-yl) quinoline-8-sulfonamide], with 1000 to 10000 nM; and `CN(C)S(=O)(=O)Nc1ccc(S(=O)(=O)N(Cc2ccccc2)c2ncc(C(F)(F)F)cc2Cl)cc1` [Example 194, N-Benzyl-N-(3-chloro-5-(trifluoromethyl)pyridin-2-yl)-4-((N,N-dimethylsulfamoyl)amino)benzenesulfonamide], with below 1000 nM. Consider `CC1(c2ccc(CN(c3ncc(Cl)cc3Cl)S(=O)(=O)c3ccc(C(=O)O)cc3)cc2)CC1` [Example 70, 4-(N-(3,5-Dichloropyridin-2-yl)-N-(4-(1-methylcyclopropyl)benzyl)sulfamoyl)benzoic acid], for which the IC50 is below 1000 nM.

The record behind these values is US20120094964A1, “SULFAMOYL BENZOIC ACID DERIVATIVES AS TRPM8 ANTAGONISTS” (priority 2009, published 2012).
